Measurements taken from PubChem BioAssay (NCI).
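How tested: cells in 96-well plates exposed to compound for 48 hours at five concentrations. TGI is the concentration that stops growth completely.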

What was measured:
Test in all cases: DTP human tumour cell line panel, 48 h
HOP-62 NSCLC = test system: HOP-62 NSCLC
K-562 leukemia = test system: K-562 leukemia
MALME-3M melanoma = test system: MALME-3M melanoma
MDA-MB-231 breast = test system: MDA-MB-231 breast
NCI-H23 lung = test system: NCI-H23 lung
OVCAR-4 ovarian = test system: OVCAR-4 ovarian
SW-620 colon = test system: SW-620 colon
TK-10 renal = test system: TK-10 renal
UO-31 renal = test system: UO-31 renal
CAKI-1 renal = test system: CAKI-1 renal
RXF 393 renal = test system: RXF 393 renal
SF-539 CNS = test system: SF-539 CNS

Structure (SMILES) | TGI (HOP-62 NSCLC) [µM] | TGI (K-562 leukemia) [µM] | TGI (MALME-3M melanoma) [µM] | TGI (MDA-MB-231 breast) [µM] | TGI (NCI-H23 lung) [µM] | TGI (OVCAR-4 ovarian) [µM] | TGI (SW-620 colon) [µM] | TGI (TK-10 renal) [µM] | TGI (UO-31 renal) [µM] | TGI (CAKI-1 renal) [µM] | TGI (RXF 393 renal) [µM] | TGI (SF-539 CNS) [µM]
CCC(C)[C@@H](NCc1ccccc1)[C@H](OCc1ccccc1)[C@@H]1COC(C)(C)O1 (stereo partly drawn) | > 100 | 59.8 | 45.8 | 40.4 | 44.3 | > 100 | 48.5 | 32.7 | 41.3 | – | – | –
C1=C\SS/C=C\SS/C=C\SS/C=C\SS/1 | > 100 | 64 | > 100 | > 100 | > 100 | > 100 | > 100 | > 100 | > 100 | > 100 | > 100 | –
O=C(O)CCCl | > 5000 | > 5000 | 4970 | – | > 5000 | > 5000 | > 5000 | > 5000 | > 5000 | > 5000 | > 5000 | > 5000
C1CC2=C(C1)[Se]C(=C1Sc3nsnc3S1)[Se]2 | > 100 | – | > 100 | > 100 | > 100 | > 100 | > 100 | > 100 | > 100 | > 100 | – | > 100
CC(=O)NC1C(OCc2ccccc2)OC(CO)C(O)C1OCC(=O)NC(C)C(=O)NC(CCC(=O)NCCCCNc1ccc([N+](=O)[O-])c2[nH]c3ccccc3c(=O)c12)C(N)=O (stereo not drawn) | > 100 | > 100 | > 100 | > 100 | > 100 | > 100 | > 100 | > 100 | > 100 | > 100 | – | > 100
O=C(CP(c1ccccc1)c1ccccc1)c1cccc(C(=O)CP(c2ccccc2)c2ccccc2)c1 | > 100 | > 100 | – | > 100 | – | > 100 | > 100 | > 100 | 50.8 | > 100 | > 100 | > 100
[O-]/[N+](=C\c1ccccc1)[C@H](COCc1ccccc1)c1ccccc1 | > 100 | > 100 | > 100 | – | > 100 | – | > 100 | > 100 | > 100 | – | > 100 | > 100
CCC(C)[C@H](NC(=O)[C@H](Cc1ccccc1)NC(=O)N(CC)c1ccccc1)C(=O)N[C@@H](CC(C)C)C(=O)OC (stereo partly drawn) | > 100 | – | > 100 | > 100 | > 100 | > 100 | > 100 | > 100 | 67.2 | > 100 | > 100 | 93.8
COc1ccc(/C=C2\CN(C)Cc3c2nc(N)nc3-c2ccc(OC)cc2)cc1 | > 100 | > 100 | > 100 | – | > 100 | – | > 100 | > 100 | > 100 | > 100 | > 100 | > 100
O=C1C=CC2CCC1C2 (stereo not drawn) | > 100 | > 100 | > 100 | > 100 | > 100 | – | > 100 | > 100 | > 100 | > 100 | – | 90.2
O=S(=O)(Oc1ccc2oc3ccccc3c2c1-c1c(OS(=O)(=O)C(F)(F)F)ccc2oc3ccccc3c12)C(F)(F)F | > 100 | > 100 | – | > 100 | > 100 | > 100 | > 100 | > 100 | > 100 | > 100 | > 100 | > 100
Cc1nc2c(=S)[nH]ncc2[nH]1 | > 100 | > 100 | > 100 | > 100 | > 100 | > 100 | > 100 | > 100 | > 100 | > 100 | – | > 100
COc1c2c(c3c(c1C1OC(C)[C@@H](C)O1)CC(C)(C)O3)C(=O)c1ccccc1C2=O (stereo partly drawn) | > 100 | > 100 | > 100 | – | > 100 | > 100 | 63.6 | > 100 | > 100 | > 100 | > 100 | > 100
C=C1C(=O)OC2/C=C(\C)C(OC(C)=O)C3OC3C(C)(O)CC(OC(=O)/C(C)=C/C)C12 (stereo not drawn) | 37.4 | 18.9 | 21 | – | 34.4 | 62.2 | 1.89 | 24.6 | 23 | 5.94 | 19.3 | 14.2
CCc1nn(CN2CCN(C)CC2)c(=S)n1/N=C\c1ccc(-c2ccc([N+](=O)[O-])cc2)o1 | > 100 | > 100 | > 100 | > 100 | > 100 | > 100 | – | 71.3 | > 100 | > 100 | 82.5 | –
CC1(C)O[C@H]2Cn3c(c(C#N)c4ccccc43)[C@H]2O1 | > 100 | – | > 100 | > 100 | > 100 | > 100 | – | > 100 | > 100 | > 100 | – | > 100
c1csc(-c2ccc(-c3ccc(-c4ccc(-c5cccs5)s4)s3)s2)c1 | > 100 | > 100 | – | – | > 100 | – | > 100 | > 100 | > 100 | > 100 | > 100 | > 100
CCOC(=O)c1cn(-c2ccccc2)c(=S)n2c1nc1ccccc12 | > 100 | > 100 | – | > 100 | > 100 | > 100 | > 100 | > 100 | – | > 100 | > 100 | > 100
COc1ccc(-c2nc(N)c(C#N)c3c2CCS(=O)(=O)c2ccc(C)cc2-3)cc1OC | > 100 | 29.4 | > 100 | > 100 | > 100 | > 100 | > 100 | > 100 | > 100 | > 100 | – | –
CO/C(=N\N=C\c1cc(OC)ccc1OC)c1ccncc1 | > 10 | > 10 | > 10 | – | > 10 | – | > 10 | > 10 | > 10 | – | > 10 | > 10
Cc1ccc(S(=O)(=O)N/N=C/c2oc(-c3cccc([N+](=O)[O-])c3)c(-c3cccc([N+](=O)[O-])c3)c2[N+](=O)[O-])cc1 | – | 69.9 | > 100 | – | > 100 | > 100 | > 100 | > 100 | 32.3 | > 100 | 90.1 | > 100
